Patent publication US9790189B2, “Disubstituted 5-fluoro pyrimidine derivatives containing a sulfondiimine group” (Bayer Pharma Aktiengesellschaft, priority 2014, dated 2017)
pIC50: −log10 of the molar value. In brackets after ≈: the same amount, converted by molar mass. Like-named read-outs stand apart in the source and are kept apart here.

Columns and labels:
[1] = tested on: HeLa cells; assay: Proliferation assay, HeLa (crystal violet); assay type: cell-based; settings: Homo sapiens, 96 h, 4 days, read-out: Inhibition of HeLa cell proliferation IC50
Description: (§1) Cultivated tumour cells (HeLa, human cervical tumour cells, ATCC CCL-2; NCI-H460, human non-small cell lung carcinoma cells, ATCC HTB-177; A2780, human ovarian carcinoma cells, ECACC #93112519; DU 145, hormone-independent human prostate carcinoma cells, ATCC HTB-81; HeLa-MaTu-ADR, multidrug-resistant human cervical carcinoma cells, EPO-GmbH Berlin; Caco-2, human colorectal carcinoma cells, ATCC HTB-37; B16F10, mouse melanoma cells, ATCC CRL-6475) were plated at a density of 5,000 cells/well (DU145, HeLa-MaTu-ADR), 3,000 cells/well (NCI-H460, HeLa), 2,500 cells/well (A2780), 1,500 cells/well (Caco-2), or 1,000 cells/well (B16F10) in a 96-well multititer plate in 200 μL of their respective growth medium supplemented 10% fetal calf serum. After 24 hours, the cells of one plate (zero-point plate) were stained with crystal violet (see below), while the medium of the other plates was replaced by fresh culture medium (200 μl), to which the test substances were added in various concentrations (0 μM, as well as in the range of 0.001-10 μM; the final concentration of the solvent dimethyl sulfoxide was 0.5%). The cells were incubated for 4 days in the presence of test substances. Cell proliferation was determined by staining the cells with crystal violet: the cells were fixed by adding 20 μl/measuring point of an 11% glutaric aldehyde solution for 15 minutes at room temperature. After three washing cycles of the fixed cells with water, the plates were dried at room temperature. The cells were stained by adding 100 μl/measuring point of a 0.1% crystal violet solution (pH 3.0). After three washing cycles of the stained cells with water, the plates were dried at room temperature. The dye was dissolved by adding 100 μl/measuring point of a 10% acetic acid solution. The extinction was determined by photometry at a wavelength of 595 nm. The change of cell number, in percent, was calculated by normalization of the measured values to the extinction values of the zero-point plate (=0%) and the extinction of the untreated (0 μm) cells (=100%).

[2] = tested on: HeLa-MaTu-ADR cells; assay: Proliferation assay, HeLa-MaTu-ADR (crystal violet); assay type: cell-based; settings: Homo sapiens, 96 h, 4 days, read-out: Inhibition of HeLa-MaTu-ADR cell proliferation IC50
Description: as §1

[3] = tested on: NCI-H460 cells; assay: Proliferation assay, NCI-H460 (crystal violet); assay type: cell-based; settings: Homo sapiens, 96 h; NCI-H460, 4 days; read-out: Inhibition of NCI-H460 cell proliferation IC50
Description: as §1

[4] = tested on: DU145 cells; assay: Proliferation assay, DU145 (crystal violet); assay type: cell-based; settings: Homo sapiens, DU-145, 96 h; DU145, 4 days; read-out: Inhibition of DU145 cell proliferation IC50
Description: as §1

[5] = tested on: Caco-2 cells; assay: Proliferation assay, Caco-2 (crystal violet); assay type: cell-based; settings: Homo sapiens, 96 h; Caco-2, 4 days; read-out: Inhibition of Caco-2 cell proliferation IC50
Description: as §1

[6] = tested on: B16F10 cells; assay: Proliferation assay, B16F10 (crystal violet); assay type: cell-based; settings: Mus musculus, B16-F10, 96 h; B16F10, 4 days; read-out: Inhibition of B16F10 cell proliferation IC50
Description: as §1

[7] = tested on: A2780 cells; assay: Proliferation assay, A2780 (crystal violet); assay type: cell-based; settings: Homo sapiens, 96 h; A2780, 4 days; read-out: Inhibition of A2780 cell proliferation IC50
Description: as §1

[8] = Equilibrium shake flask solubility, high throughput from DMSO solution (Method 4a); assay type: physicochemical; settings: phosphate buffer pH 6.5 with 1% DMSO, aqueous buffer, phosphate buffer pH 6.5, 24 hrs, room temperature
Text: 4. Equilibrium Shake Flask Solubility Assays:
4a) High Throughput Determination of Aqueous Drug Solubility (100 mmolar in DMSO)
The high throughput screening method to determine aqueous drug solubility is based on:
Thomas Onofrey and Greg Kazan, Performance and correlation of a 96-well high throughput screening method to determine aqueous drug solubility, http://www.millipore.com/publications.nsf/a73664f9f981af8c852569b9005b4eee/e565516fb76e7435852 56da30052db77/$FILE/AN1731EN00.pdf
The assay was run in a 96-well plate format. Each well was filled with an individual compound.
All pipetting steps were performed using a robot platform.
100 μl of a 10 mmolar solution of drug in DMSO were concentrated by vacuum centrifugation and resolved in 10 μl DMSO. 990 μl phosphate buffer pH 6.5 were added. The content of DMSO amounts to 1%. The multititer plate was put on a shaker and mixed for 24 hrs at room temperature. 150 μl of the suspension were transferred to a filtration plate. After filtration using a vacuum manifold the filtrate was diluted 1:400 and 1:8000. A second microtiter plate with 20 μl of a 10 mM solution of drug in DMSO served for calibration. Two concentrations (0.005 μM and 0.0025 μM) were prepared by dilution in DMSO/water 1:1 and used for calibration. Filtrate and calibration plates were quantified by HPLC-MS/MS.
Preparation of 0.1 m Phosphate Buffer pH 6.5:
61.86 g NaCl and 39.54 mg KH2PO4 were solved in water and filled up to […]. The mixture was diluted 1:10 with water and the pH adjusted to 6.5 by NaOH.
Materials: • Millipore MultiScreenHTS-HV Plate 0.45 μm
Chromatographic conditions were as follows: • HPLC column: Ascentis Express C18 2.7 μm 4.6×30 mm • Injection volume: 1 μl • Flow: 1.5 ml/min • Mobile phase: acidic gradient • A: Water/0.05% HCOOH • B: Acetonitrile/0.05% HCOOH • 0 min→95% A 5% B • 0.75 min→5% A 95% B • 2.75 min→5% A 95% B • 2.76 min→95% A 5% B • 3 min→95% A 5% B
The areas of sample- and calibration injections were determined by using mass spectromety software (AB SCIEX: Discovery Quant 2.1.3. and Analyst 1.6.1). The calculation of the solubility value (in mg/l) was executed by an inhouse developed Excel macro.

[9] = target: T1, CDK2/CycE (Homo sapiens, UniProt P24941); assay: CDK2/CycE kinase assay (TR-FRET, Method 2a)
[10] = target: T1, CDK2/CycE; assay: CDK2/CycE high ATP kinase assay (TR-FRET, Method 2b)
[11] = Caco-2 permeation assay (Method 5); assay type: in vitro ADME; settings: human; for Papp A→B at 2 h, 2 µM / Papp B→A at 2 h, 2 µM: pH 7.2, Caco-2, 2 μM test compound; for Papp A→B at 2 h, 2 µM: read-out: Papp A−B (Mari); for Papp B→A at 2 h, 2 µM: read-out: Papp B−A (Mari)
Description: Cells were maintained at 37° C. in a humidified 5% CO2 atmosphere. Medium was changed every 2-3 day. Before running the permeation assay, the culture medium was replaced by a FCS-free hepes-carbonate transport buffer (pH 7.2). For assessment of monolayer integrity the transepithelial electrical resistance (TEER) was measured. Test compounds were predissolved in DMSO and added either to the apical or basolateral compartment in final concentration of 2 μM in transport buffer. Before and after 2 h incubation at 37° C. samples were taken from both compartments. Analysis of compound content was done after precipitation with methanol by LC/MS/MS analysis. Permeability (Papp) was calculated in the apical to basolateral (A→B) and basolateral to apical (B→A) directions. […] The efflux ratio basolateral (B) to apical (A) was calculated by dividing the Papp B−A by the Papp A−B. In addition the compound recovery was calculated.

[12] = tested on: MOLM-13 cells; assay: Proliferation assay, MOLM-13 (Cell Titre-Glo); assay type: cell-based; settings: Homo sapiens; MOLM-13, 72-hour exposure; read-out: Inhibition of MOLM-13 cell proliferation IC50
Description: Non-adherent MOLM-13 human acute myeloid leukemia cells (DSMZ ACC 554) were seeded at a density of 5,000 cells/well in a 96-well multititer plate in 100 μL of growth medium supplemented 10% fetal calf serum. After 24 hours, cell viability of one plate (zero-point plate) was determined with the Cell Titre-Glo Luminescent Cell Viability Assay (Promega), while 50 μL of test compound containing medium was added to the wells of the other plates (final concentrations in the range of 0.001-10 μM and DMSO controls; the final concentration of the solvent dimethyl sulfoxide was 0.5%). Cell viability was assessed after 72-hour exposure with the Cell Titre-Glo Luminescent Cell Viability Assay (Promega).

[13] = target: T2, CDK9/CycT1 (Homo sapiens, UniProt P50750); assay: CDK9/CycT1 kinase assay (TR-FRET, Method 1a)
T2 sequence (P50750 whole entry): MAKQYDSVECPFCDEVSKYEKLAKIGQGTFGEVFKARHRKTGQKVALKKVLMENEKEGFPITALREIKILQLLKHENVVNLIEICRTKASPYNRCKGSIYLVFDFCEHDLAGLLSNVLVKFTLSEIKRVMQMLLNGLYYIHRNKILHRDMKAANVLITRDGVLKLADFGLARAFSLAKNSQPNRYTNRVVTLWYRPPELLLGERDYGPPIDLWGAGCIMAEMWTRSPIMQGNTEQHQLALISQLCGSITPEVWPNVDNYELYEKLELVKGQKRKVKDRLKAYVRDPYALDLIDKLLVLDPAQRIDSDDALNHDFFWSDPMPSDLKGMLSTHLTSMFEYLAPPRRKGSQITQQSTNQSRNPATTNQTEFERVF
T2 sequence (O60563 whole entry partner): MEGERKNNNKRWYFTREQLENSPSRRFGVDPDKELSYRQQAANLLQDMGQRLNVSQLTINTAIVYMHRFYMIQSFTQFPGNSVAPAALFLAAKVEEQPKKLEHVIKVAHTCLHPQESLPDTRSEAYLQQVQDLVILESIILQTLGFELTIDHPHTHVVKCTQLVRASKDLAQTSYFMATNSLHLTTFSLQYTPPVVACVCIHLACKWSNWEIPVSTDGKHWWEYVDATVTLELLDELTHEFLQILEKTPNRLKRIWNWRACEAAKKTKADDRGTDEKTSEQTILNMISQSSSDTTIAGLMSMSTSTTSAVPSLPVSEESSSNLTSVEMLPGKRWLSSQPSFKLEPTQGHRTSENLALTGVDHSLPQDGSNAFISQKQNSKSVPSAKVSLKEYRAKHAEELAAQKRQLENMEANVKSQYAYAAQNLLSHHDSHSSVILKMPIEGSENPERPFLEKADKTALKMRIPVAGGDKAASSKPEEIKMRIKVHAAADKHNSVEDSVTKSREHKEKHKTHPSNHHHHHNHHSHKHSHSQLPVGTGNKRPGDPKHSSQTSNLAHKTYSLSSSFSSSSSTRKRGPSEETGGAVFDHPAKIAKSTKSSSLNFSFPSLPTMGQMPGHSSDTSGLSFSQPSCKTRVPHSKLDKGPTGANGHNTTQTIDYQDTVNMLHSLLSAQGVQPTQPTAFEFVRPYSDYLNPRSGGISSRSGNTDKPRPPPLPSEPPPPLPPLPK

[14] = target: T2, CDK9/CycT1

With CN=S(C)(=N)Cc1cc(F)cc(Nc2ncc(F)c(-c3ccc(F)cc3OC)n2)c1 (racemic) [Example 2, (rac)-N-{3-[(N,S-Dimethylsulfonodiimidoyl)methyl]-5-fluorophenyl}-5-fluoro-4-(4-fluoro-2-methoxyphenyl)pyrimidin-2-amine] the pIC50 [1] was 6.39, the pIC50 [2] was 6.10 and the pIC50 [3] was 6.01. For the same compound, the pIC50 [4] was 6.20, the pIC50 [5] was 6.07 and the pIC50 [6] was 5.95. For the same compound, the pIC50 [7] was 6.48, the solubility thermodynamic at 24 h [8] was 97 µg/mL (≈ 223 µM) and the pIC50 [9] was 5.89. The pIC50 [10] was 4.89.
COc1cc(F)ccc1-c1nc(Nc2cc(F)cc(CS(C)(=N)=Nc3ccccc3)c2)ncc1F (racemic) [Example 3, (rac)-5-Fluoro-4-(4-fluoro-2-methoxyphenyl)-N-{3-fluoro-5-[(S-methyl-N-phenylsulfonodiimidoyl)methyl]phenyl}pyrimidin-2-amine] showed a pIC50 [1] of 6.00, a pIC50 [2] of 6.06 and a pIC50 [3] of 5.96. The pIC50 [4] was 5.98, the pIC50 [5] was 6.00 and the pIC50 [6] was 5.90. The pIC50 [7] was 6.26, the solubility thermodynamic at 24 h [8] was 1.4 µg/mL (≈ 2.81 µM) and the pIC50 [9] was 5.85.
With C#CCN=S(C)(=N)Cc1cc(F)cc(Nc2ncc(F)c(-c3ccc(F)cc3OC)n2)c1 (racemic) [Example 4, (rac)-5-Fluoro-4-(4-fluoro-2-methoxyphenyl)-N-(3-fluoro-5-{[S-methyl-N-(prop-2-yn-1-yl)sulfonodiimidoyl]methyl}phenyl)pyrimidin-2-amine] the pIC50 [1] was 6.27, the pIC50 [2] was 6.16 and the pIC50 [3] was 6.03. The pIC50 [4] was 6.24, the pIC50 [5] was 6.07 and the pIC50 [6] was 5.95. It also gave a pIC50 [7] of 6.45, a pIC50 [9] of 6.24 and a pIC50 [10] of 5.37.
In the case of COc1cc(F)ccc1-c1nc(Nc2cc(F)cc(CS(C)(=N)=NC#N)c2)ncc1F (racemic) [Example 5, (rac)-[(3-Fluoro-5-{[5-fluoro-4-(4-fluoro-2-methoxyphenyl)pyrimidin-2-yl]amino}benzyl)(imino)methyl-λ^6-sulfanylidene]cyanamide], the pIC50 [1] was 7.14, the pIC50 [2] was 7.10 and the pIC50 [3] was 6.71. The pIC50 [4] was 7.38, the pIC50 [5] was 7.03 and the pIC50 [6] was 6.91. It also gave a pIC50 [7] of 7.46, a Papp A→B at 2 h, 2 µM [11] of 2.88 ×10⁻⁶ cm/s and a Papp B→A at 2 h, 2 µM [11] of 19.9 ×10⁻⁶ cm/s. The pIC50 [9] was 6.72 and the pIC50 [10] was 5.83.
With COc1cc(F)ccc1-c1nc(Nc2cc(F)cc(CS(C)(=N)=NCCCO)c2)ncc1F (racemic) [Example 6, (rac)-3-{[(3-Fluoro-5-{[5-fluoro-4-(4-fluoro-2-methoxyphenyl)pyrimidin-2-yl]amino}benzyl)(imino)methyl-λ^6-sulfanylidene]amino}propan-1-ol] the pIC50 [1] was 6.29, the solubility thermodynamic at 24 h [8] was 259 µg/mL (≈ 540 µM) and the pIC50 [9] was 6.01. It also gave a pIC50 [10] of 4.70.
In the case of CS(=N)(=N)Cc1cc(Nc2ncc(F)c(-c3ccc(F)cc3F)n2)cc(S(F)(F)(F)(F)F)c1 [Example 7, 4-(2,4-Difluorophenyl)-5-fluoro-N-{3-[(S-methylsulfonodiimidoyl)methyl]-5-(pentafluoro-λ^6-sulfanyl)phenyl}pyrimidin-2-amine], the pIC50 [1] was 6.46, the pIC50 [7] was 6.47 and the pIC50 [12] was 6.61. The solubility thermodynamic at 24 h [8] was 1.2 µg/mL (≈ 2.32 µM), the efflux ratio at 2 h, 2 µM ([11]; Caco-2, pH 7.2) was 1.1 and the Papp A→B at 2 h, 2 µM [11] was 3.21 ×10⁻⁶ cm/s. For the same compound, the Papp B→A at 2 h, 2 µM [11] was 3.57 ×10⁻⁶ cm/s, the pIC50 [9] was 5.64 and the pIC50 [13] was 7.77. For the same compound, the “Selectivity CDK9 over CDK2: IC50 (CDK2)/IC50 (CDK9)” value ([13]; Methods 1a and 2a) was 135, the pIC50 [10] was no more than 4.70 and the pIC50 [14] was 7.59. For the same compound, the “Selectivity high ATP CDK9 over high ATP CDK2: IC50 (high ATP CDK2)/IC50 (high ATP CDK9)” value ([14]; Methods 1b and 2b) was 769.
With COc1cc(F)ccc1-c1nc(Nc2cc(CS(C)(=N)=N)cc(S(F)(F)(F)(F)F)c2)ncc1F [Example 8, 5-Fluoro-4-(4-fluoro-2-methoxyphenyl)-N-{3-[(S-methylsulfonodiimidoyl)methyl]-5-(pentafluoro-λ^6-sulfanyl)phenyl}pyrimidin-2-amine] the pIC50 [1] was 6.98, the pIC50 [2] was 6.71 and the pIC50 [3] was 6.83. For the same compound, the pIC50 [4] was 6.89, the pIC50 [5] was 6.84 and the pIC50 [6] was 6.63. For the same compound, the pIC50 [12] was 7.44, the solubility thermodynamic at 24 h [8] was 2.2 µg/mL (≈ 4.15 µM) and the Papp A→B at 2 h, 2 µM [11] was 3.33 ×10⁻⁶ cm/s. The Papp B→A at 2 h, 2 µM [11] was 5.19 ×10⁻⁶ cm/s, the pIC50 [9] was 6.40 and the pIC50 [10] was 5.52.
